Measurements published in publication PMC8222254, “Self-assembly of an anion receptor with metal-dependent kinase inhibition and potent in vitro anti-cancer properties” (Nature Communications, 2021).

What was measured:
ARPE-19 [1] = assay: Immunoblotting of whole cell protein lysates; assay type: cell-based, human; conditions: for levels of p53: ARPE19, 5 µM, 40 h
Procedure: (§1) ARPE-19 and HCT116 p53^+/+ cells were seeded at a density of 3 × 10^5 (ARPE-19) or 5 × 10^5 (HCT116 p53^+/+) in T25 flasks. 24 h after seeding, cells were treated with 10 µM of [L2Cu3]^6+, [L2Zn3]^6+, or vehicle control for 4 h (Fig. 8b) or 5 μM of [L2Cu3]^6+, [L2Zn3]^6+, or vehicle control for 40 h (Fig. 10). Cells were then harvested and lysed in RIPA buffer (Sigma) with the protein concentration of lysates determined by the BCA assay.
(§2) Protein lysates and recombinant proteins were resolved on 15% SDS polyacrylamide gels. Proteins were electroblotted onto nitrocellulose membrane by wet transfer in 1xTris Glycine buffer (Biorad) at 35 mA overnight at room temperature. After blocking of membranes, these were incubated with primary antibody overnight at 4 °C before addition of rabbit or mouse secondary antibody (HRP-conjugated; 1:5000, Dako P0448 or P0260) for 1 h at room temperature and development of blots by enhanced chemiluminescence. Primary antibodies were: anti-Src (total) (Cell Signalling Technology #2123 1:1000), anti-phosphorylated Src (Y527) (Cell Signalling Technology #21055 1:1000), anti-phosphorylated Src (Y416) (Cell Signalling Technology #69435 1:1000), anti-AMPKα (total) (Cell Signalling Technology #2532 1:1000), anti-phosphorylated AMPKα (T172) (Cell Signalling Technology #2535 1:1000), anti-AMPKβ1 (total) (Cell Signalling Technology #4150 1:1000), anti-phosphorylated AMPKβ1 (S108) (abcam ab156890 1:500), anti-phospho-Tyr (pan) (Cell Signalling Technology #8954 1:2000), anti-p53 (Santa Cruz, DO-1 clone, 1:1000,), anti-phosphorylated LDH-A (Y10) (Cell Signalling Technology #8176 1:1000), anti-LDH-A/B (total) (abcam ab134187 1:5000), anti-β-actin (Merck MAB1501, 1:40,000). Quantification of signals was performed by densitometry using Image J software. Uncropped and unprocessed scans are provided in the Source Data file.

HCT116 p53+/+ [2] = assay: Immunoblotting of whole cell protein lysates; assay type: cell-based, human
Procedure: as §1, §2

ARPE-19 [3] = assay: Quantification of cellular ATP levels (CellTiterGlo); assay type: cell-based, human; conditions: for % ATP Activity (Average): ARPE-19 cells, average of runs, relative to 0 µM = 100; for ATP levels relative to vehicle control: ARPE19, 100μM, 20h
Procedure: (§3) ARPE-19 and HCT116 p53^+/+ cells were seeded in 96-well opaque plates at a density of 7500 cells/well. 24 h after seeding, cells were treated for 20 h with a range of concentrations of [[…]]^6+, [L2Zn3]^6+, [[…]]^6+, or vehicle control (2-fold serial dilution from 100-3.125 μM) before determining total cellular ATP content by quantification of luminescence (CellTiterGlo® assay, Promega). ATP levels were normalised relative to levels in vehicle control-treated cells.

HCT116 p53+/+ [4] = assay: as above; assay type: cell-based, human; conditions: for ATP levels relative to vehicle control: 20h; for % ATP Activity (Average): HCT116 p53+/+ cells, average of runs, relative to 0 µM = 100
Procedure: as §3

[5] = UV-Vis study of hydrolysis of 4-nitrophenyl phosphate; conditions: HEPES pH 7.4 / DMSO, blank 0.0129
Procedure: UV–Vis studies were carried out on a Cary 60 UV–Vis spectrophotometer with Thermo cycler attachment and the wavelength range of 800–250 nm was scanned every hour for 43 h whilst the solution was heated at a constant temperature of 37 °C. Progress of hydrolysation of 4-nitrophenyl phosphate to 4-nitrophenol was measured by monitoring the increase in absorption at the wavelength of 400 nm (typical for 4-nitrophenol). HEPES buffer was prepared at pH 7.4. Solutions were prepared by dissolving the ligand L (3.1 mg, 0.005 mmol) and the relevant metal salt (1.5 equivalents with respect to ligand) in DMSO (5 mL). 4-nitrophenyl phosphate (18.6 mg, 0.050 mmol) was dissolved in HEPES buffer (~10 mL, 60 mmol). These solutions were then combined and made up volumetrically to 50 mL with HEPES buffer. Where required Bu4NH2PO4 (0.5 equivalents with respect to ligand) was added to the HEPES buffer.
5. UV-Vis studies of the hydrolysis of disodium 4-nitrophenylphosphate.
UV-Vis studies were carried out on a Cary 60 UV-Vis spectrophotometer with Thermo cycler attachment and the wavelength range of 800 – 250 nm was scanned every hour for 43 hours whilst the solution was heated at a constant temperature of 37 °C. Progress of hydrolysation of 4-nitrophenyl phosphate to 4-nitrophenol was measured by monitoring the increase in absorption at the wavelength of 400 nm (typical for 4-nitrophenol). HEPES buffer was prepared at pH 7.4.
Solutions were prepared by dissolving the ligand L (3.1 mg, 0.005 mmol) and the relevant metal salt (1.5 equiv w.r.t. ligand) in DMSO (5 mL). 4 -nitrophenyl phosphate (18.6 mg, 0.050 mmol) was dissolved in HEPES buffer (~10 mL , 60 mmol) These solutions were then combined and made up volumetrically to 50 mL with HEPES buffer.
(1.5 equiv w.r.t. ligand) in DMSO (5 mL). Tetrabutylammonium phosphate (0.84 mg, 0.0025 mmol) was dissolved in HEPES buffer (~1 mL, 60 mmol) and these solutions were combined. […]

HCT116 p53+/+ [6] = assay: Confocal imaging of autophagic cells (CYTO-ID); assay type: cell-based, human; conditions: 3.125 µM, 40 h
Procedure: Cells were seeded in Lumox chamber slides (8-well, Sarstedt) at a density of 1.25 × 10^4 cells/well (ARPE-19) or 5.625 × 10^4 cells/well (HCT116 p53^−/− and HCT116 p53^+/+). 24 h after seeding, cells were treated with 3.125 μM of [L2Cu3]^6+, [L2Zn3]^6+, [L2Mn3]^6+, or vehicle control for 40 h before removal and addition of CYTO-ID Green autophagic dye (1:500 dilution, Enzo Life Sciences) and Hoechst 3342 nuclear counter stain for 30 min at 37 °C. Media was then replaced before imaging using a Zeiss LSM880 confocal laser scanning microscope.

SMILES | levels of p53 (ARPE-19 [1]) | increase of p53 levels (HCT116 p53+/+ [2]; HCT116, 5 µM, 40 h) | % ATP Activity (Average) (ARPE-19 [3]; 3.125 µM complex) [%] | % ATP Activity (Average) (ARPE-19 [3]; 6.25 µM complex) [%] | % ATP Activity (Average) (ARPE-19 [3]; 12.5 µM complex) [%] | % ATP Activity (Average) (ARPE-19 [3]; 25 µM complex) [%] | % ATP Activity (Average) (ARPE-19 [3]; 50 µM complex) [%] | % ATP Activity (Average) (ARPE-19 [3]; 100 µM complex) [%] | % ATP Activity (Average) (HCT116 p53+/+ [4]; 3.125 µM complex) [%] | % ATP Activity (Average) (HCT116 p53+/+ [4]; 6.25 µM complex) [%] | % ATP Activity (Average) (HCT116 p53+/+ [4]; 12.5 µM complex) [%] | % ATP Activity (Average) (HCT116 p53+/+ [4]; 25 µM complex) [%] | % ATP Activity (Average) (HCT116 p53+/+ [4]; 50 µM complex) [%] | % ATP Activity (Average) (HCT116 p53+/+ [4]; 100 µM complex) [%] | Concentration of 4-nitrophenol after 24 hours at 37°C [5] [mM] | induction of autophagy (CYTO-ID) (HCT116 p53+/+ [6]) | ATP levels relative to vehicle control (ARPE-19 [3]) | other results
[Cu+2].[Cu+2].[Cu+2].c1ccc(-c2csc(NCCN(CCNc3nc(-c4ccccn4)cs3)CCNc3nc(-c4ccccn4)cs3)n2)nc1.c1ccc(-c2csc(NCCN(CCNc3nc(-c4ccccn4)cs3)CCNc3nc(-c4ccccn4)cs3)n2)nc1 [[L2Cu3]6+] | decreased | ~ 1.7 fold | 91.48 | 92.26 | 92.93 | 95.14 | 85.50 | 56.08 | 75.66 | 75.32 | 74.21 | 71.91 | 61.46 | 38.46 | – | – | – | ATP levels relative to vehicle control (HCT116 p53+/+ [4]; HCT116, highest concentration of 100μM): < 50%
[Mn+2].[Mn+2].[Mn+2].c1ccc(-c2csc(NCCN(CCNc3nc(-c4ccccn4)cs3)CCNc3nc(-c4ccccn4)cs3)n2)nc1.c1ccc(-c2csc(NCCN(CCNc3nc(-c4ccccn4)cs3)CCNc3nc(-c4ccccn4)cs3)n2)nc1 [[L2Mn3]6+] | – | – | 82.98 | 75.81 | 71.57 | 63.68 | 53.48 | 40.46 | 52.15 | 40.82 | 38.17 | 35.09 | 31.21 | 28.58 | 0.1185 | evident | ~ 40% | ATP levels relative to vehicle control (HCT116 p53+/+ [4]; HCT116 p53+/+, 6.25μM): < 50%
CC(=O)[O-].CC(=O)[O-].CC(=O)[O-].O=P([O-])([O-])[O-].[Zn+2].[Zn+2].[Zn+2].c1ccc(-c2csc(NCCN(CCNc3nc(-c4ccccn4)cs3)CCNc3nc(-c4ccccn4)cs3)n2)nc1.c1ccc(-c2csc(NCCN(CCNc3nc(-c4ccccn4)cs3)CCNc3nc(-c4ccccn4)cs3)n2)nc1 [[L2Zn3(PO4)]3+] | – | – | – | – | – | – | – | – | – | – | – | – | – | – | 0.0164 | – | – | –
CC(=O)[O-].CC(=O)[O-].CC(=O)[O-].CC(=O)[O-].CC(=O)[O-].CC(=O)[O-].[Zn+2].[Zn+2].[Zn+2].c1ccc(-c2csc(NCCN(CCNc3nc(-c4ccccn4)cs3)CCNc3nc(-c4ccccn4)cs3)n2)nc1.c1ccc(-c2csc(NCCN(CCNc3nc(-c4ccccn4)cs3)CCNc3nc(-c4ccccn4)cs3)n2)nc1 [[L2Zn3]6+] | decreased | ~ 2.7 fold | 91.98 | 88.71 | 84.92 | 79.86 | 79.43 | 73.40 | 71.75 | 63.36 | 54.43 | 46.16 | 35.67 | 26.26 | 0.0361 | barely detectable | > 70% | p-Y10 LDH-A (ARPE-19 [1]; ARPE-19, 10µM, 4h, n=1): modestly decrease; cellular levels of T172P of AMPKα relative to total AMPKα (HCT116 p53+/+ [2]; HCT116, 5 µM, 40 h): increased; decrease in total levels of Tyr-phosphorylated proteins (HCT116 p53+/+ [2]; HCT116, 5 µM, 40 h, pan phospho-tyrosine antibody): ~ 10%; cellular phospho-Thr172 AMPKα levels (HCT116 p53+/+ [2]; HCT116 cancer cells, 10 µM, 4 h): decreased; ATP levels relative to vehicle control (HCT116 p53+/+ [4]; HCT116 p53+/+, concentrations of ≥25μM): < 50%
